In US20070111258A1, “Compositions and methods for modulating the acute phase response” (priority 2005, published 2007):

What was measured:
CREBH mRNA = CREBH mRNA induction in H2.35 cells (Northern blot, quantitative real-time RT-PCR); assay type: cell-based; conditions: murine H2.35 hepatoma cells; IL6 40 ng/ml, TNFα 20 ng/ml, IL1β 40 ng/ml, DTT 5 mM, Tg 0.5 μM, Tm 5 μg/ml, BFA 0.5 μg/ml; 4, 8, 12 hours
Procedure: FIG. 1 depicts the induction of expression of CREBH during fetal liver development and by proinflammatory cytokines. (A) Structural comparison of CREBH and ATF6. The domains are indicated by residue numbers of amino acids. (B) Northern blot analysis of CREBH mRNA levels in various tissues from mice. Tissue samples were collected from 3-month-old wild-type C57BL/6J mice. Levels of β-actin mRNA were determined for control of sample loading. (C) Expression profile of CREBH mRNA in fetal livers during embryogenesis. (D) Induction of CREBH mRNA in murine hepatoma cell line H2.35 under IL6 (40 ng/ml) stimulation for various time points. For panels A-D, experiments were performed at least 3 times and representative data are shown.
FIG. 2 depicts the analysis of gene expression in H2.35 cells. H2.35 cells were treated with 20 ng/ml TNFα, 40 ng/ml IL1β, 20 μg.ml LPS, 5 mM DTT, 0.5 μM Tg, 5 μg/ml Tm or 0.5 μg/ml BFA for 4, 8 and 12 hours, respectively. Levels of CREBH mRNA (A) and spliced XBP1 mRNA (B) in H2.35 were determined by quantitative real-time RT-PCR. Fold changes of mRNA induction were determined after normalization of the mRNA levels to internal control 18S ribosomal RNA levels. […] However, expression from the SAP or CRP promoter-reporter plasmids is sufficiently measurable in H2.35 cells so that it is possible to investigate transcriptional activation effects of CREBH on the CRP and SAP promoters by reporter assays in H2.35 cells. These reporter experiments are not possible in non-hepatocyte cell lines. However, for non-hepatocyte cell lines, such as wild-type and mutant CHO cells, CREBH cleavage and activation could be measured using the UPRE reporter assay. (C) Summary of stimuli that induce CREBH mRNA, NF-κB activation and the UPR in H2.35 and HepG2 cells. (D) Expression of BiP and GRP94 in H2.35 cells over-expressing CREBH or ATF6. H2.35 cells in a 35 mm collagen-coated plate were transfected with 1.5 μg empty DNA vector, vector expressing the nuclear form of CREBH (CREBH-N) or vector expressing nuclear form of ATF6 (ATF6 p50), respectively. Expression levels of BiP and GRP 94 were determined by Western blot analysis by using a murine and —BiP monoclonal antibody and a murine anti-GRP94 monoclonal antibody, respectively. The membranes were re-blotted with an anti-α-actin antibody for control of sample loading.
Northern blot analysis was performed according to standard procedures (Sambrook et al., 1989). ^32P-labeled probes were prepared using a random prime labeling system (Amersham Pharmacia, Piscataway, N.J., USA). A 210 bp mouse CREBH cDNA fragment, a 250 bp mouse CRP cDNA fragment and a 260 bp mouse SAP cDNA fragment were amplified from murine total RNA by reverse transcription-PCR system (Roche Applied Science), respectively, and were used as probes for Northern blot analyses. Total RNA (15 μg) per sample purified from cultured cells or murine tissues was used for Northern blot analysis. Quantitative real-time RT-PCR was performed as previously described (Back et al., 2005). Briefly, total cellular RNA prepared was reverse-transcribed to cDNA using a random primer (Applied Biosystems). The reaction mixture, containing SYBR Green PCR Master Mix (Applied Biosystems), was run in a 7900HT Fast Real-Time PCR System (Applied Biosystems). Real-time PCR primer sequences for quantification of murine XBP1 mRNA splicing are: the forward primer 5′-[…]-3′, and the reverse primer 5′-[…]-3′. Other primer sequences were designed by Primer Express (Applied Biosystems).

human CREBH = assay: Cleavage of flag-tagged human CREBH stably expressed in H2.35 cells (Western blot, cell fractionation); assay type: cell-based; conditions: H2.35 cells stably expressing flag-tagged human CREBH; 8 hours; BFA 0.5 μg/ml, TNFα 20 ng/ml, IL6 40 ng/ml, DTT 5 mM, Tg 0.5 μM, Tm 5 μg/ml
Procedure: FIG. 3 depicts the effects of ER stress on CREBH: proteolytic cleavage of CREBH to release its N-terminal fragment that translocates into the nucleus. (A) Illustration of transmembrane domains and lumenal domains of SREBP, ATF6, Luman and CREBH in human (hs), mouse (mm). The conserved residues for S1P and S2P recognition are highlighted. (B) Cleavage of CREBH in H2.35 cells under different stimuli. H2.35 cells stably expressing flag-tagged human CREBH were treated with 0.5 μg/ml BFA, 20 ng/ml TNFα, 40 ng/ml IL6, 5 mM DTT, 0.5 μM Tg or 5 μg/ml Tm for 8 hours. Untransfected H2.35 cells (lane 1) and the H2.35 cells that stably express human CREBH (lane 2) were cultured under normal conditions as control. Total cell lysates were collected for Western blot analysis by using an anti-flag monoclonal antibody (upper panel). Levels of α-actin were determined for control of protein loading (lower panel). (C) Cleavage of CREBH in H2.35 cells under Tm treatment for various time periods. The H2.35 cells stably expressing flag-tagged CREBH were cultured in the absence or presence of Tm (5 μg/ml) for 4, 8 or 12 hours. Membrane fractions were isolated from the total cell lysates, and were subjected to Western blot analysis of CREBH and calnexin, respectively. Nuclear fractions were isolated from the same total cell lysates and subjected to Western blot analysis of CREBH and PARP, respectively. (D) Translocation of CREBH in COS7 cells. COS7 cells were co-transfected with a construct expressing flag-tagged full-length CREBH (CREBH-F) or CREBH-ΔC and a construct expressing KDEL-RFP, and were then cultured in the absence or presence of Tm (5 μg/ml) for 4 hours. Cells were then stained with FITC-conjugated anti-flag antibody and subjected to Zeiss Confocal Microscope analysis. Magnification: 40×10.
For analysis of expression and cleavage of CREBH protein, total cell lysates were prepared from H2.35 cells or COS7 cells using Nonidet P-40 lysis buffer (1% NP-40, 50 mM Tris-HCl at pH 7.5, 150 mM NaCl, 0.05% SDS) supplemented with protease inhibitors (Complete Mini from Roche Applied Science), 0.1 mM sodium vanadate, and 1 mM sodium fluoride. Membrane and nuclear fractions of cell lysates were isolated as previously described (Dignam et al., 1983). The total cell lysate, membrane and nuclear fractions were subjected to SDS-PAGE and then analyzed by Western blot using anti-flag monoclonal antibody or other antibodies. Immunoprecipitation and Western blot analyses of ATF6 and CREBH interaction in 293T cells expressing flag-tagged CREBH protein were performed by using anti-human ATF6 and anti-flag antibodies. Total cell lysates from 293T cells transfected with control vector or pFlag-CREBH-ΔC were immunoprecipitated with anti-human ATF6 polyclonal antibody and anti-flag antibody, respectively. The immunoprecipitated cell lysates were then subjected to Western blotting by using anti-flag antibody to detect CREBH protein and using anti-human ATF6 antibody to detect ATF6 protein, respectively. The same total cell lysates were subjected to Western blotting by using anti-flag antibody to detect expression of CREBH protein in the transfected cells. For detecting endogenous CREBH protein in the liver extracts, an anti-mouse CREBH polyclonal antibody was raised in rabbits against a purified mouse CREBH peptide composed of amino acids 92-109 [[…]]. The rabbit anti-human ATF6 polyclonal antibody was generated in the inventor's laboratory. The anti-mouse calnexin monoclonal antibody and the anti-mouse monoclonal PRAP antibody were purchased from Stressgen Biotechnologies (Victoria, BC, Canada) and BD Bioscience (Mountain View, Calif., USA), respectively.

[1] = test system: BiP, CHOP, EDEM, spliced XBP1, SAP and CRP mRNAs; assay: UPR and APR mRNA induction in mouse liver after injection (quantitative real-time RT-PCR); assay type: in vivo; conditions: 24 hours after injection; for fold increases in UPR mRNA levels relative to those observed after injection of Tm: liver; for levels of spliced XBP1 mRNA and mRNA encoding EDEM in the liver: wild-type mice
Procedure: Levels of spliced XBP1 mRNA were determined by quantitative real-time RT-PCR (lower panel). […] (B) Induction of CRP, SAP, BiP and spliced XBP1 mRNAs in mice injected with Tm. C57BU6J mice at 3-months of age were injected intraperitoneally with Tm (2 mg/kg body weight) in 150 mM dextrose solution. Mice were injected with the same volume of dextrose solution as a control. Liver tissues were collected from mice at 24 hours after injection for RNA isolation. (C-E) Induction of the BiP, CHOP, EDEM, spliced XBP1, SAP and CRP mRNAs in mice challenged with IL6, IL1β, LPS or Tm. Wild-type C57B1/6J mice at 3-months of age were intraperitoneally injected with recombinant murine IL6 (25 ng/gram body weight), recombinant murine IL1β (25 ng/gram body weight), LPS (3 μg/gram body weight) or Tm (2 μg/gram body weight). Mice were injected with the same volume of NaCL (for panels C and D) or dextrose (for panels E) solution as controls. At 24 hours after injection, liver samples were collected for isolating total RNA. Quantitative real-time RT-PCR was used to determine the mRNA levels. Fold changes of mRNA induction were determined after normalization of the mRNA levels to internal control 18S ribosomal RNA levels. Each bar denotes the mean±S.D., n=5 mice per injection.
Quantitative real-time RT-PCR was performed as previously described (Back et al., 2005). Briefly, total cellular RNA prepared was reverse-transcribed to cDNA using a random primer (Applied Biosystems). The reaction mixture, containing SYBR Green PCR Master Mix (Applied Biosystems), was run in a 7900HT Fast Real-Time PCR System (Applied Biosystems). Real-time PCR primer sequences for quantification of murine XBP1 mRNA splicing are: the forward primer 5′-[sequence]-3′, and the reverse primer 5′-[sequence]-3′. Other primer sequences were designed by Primer Express (Applied Biosystems).

Molecule	induction of CREBH mRNA (CREBH mRNA)	cleavage of CREBH to release a 50 kD N-terminal fragment (human CREBH)	fold increases in UPR mRNA levels relative to those observed after injection of Tm [1]	levels of spliced XBP1 mRNA and mRNA encoding EDEM in the liver [1]
C/C=C(/C)C(=O)O[C@H]1C(C)=C2[C@H]([C@@H]1OC(=O)CCCCCCC)[C@@](C)(OC(C)=O)C[C@H](OC(=O)CCC)[C@@]1(O)[C@H]2OC(=O)[C@@]1(C)O [Tg, thapsigargin]	significantly induced	significantly induced cleavage of CREBH	–	–
O[C@H](CS)[C@H](O)CS (racemic) [DTT, dithiothreitol]	significantly induced	significantly induced cleavage of CREBH	–	–
C[C@H]1CCC/C=C/[C@@H]2C[C@H](O)C[C@H]2[C@H](O)/C=C/C(=O)O1 [BFA, Brefeldin A]	significantly induced	induced cleavage of CREBH	–	–
tumor necrosis factor α [TNFα]	induced in a time-dependent manner	neither of them significantly induced CREBH cleavage	–	–
interleukin-6 (protein, UniProt P08505 25-211, looked up, pro-inflammatory cytokine; recombinant murine IL6 in vivo) Interleukin-6: FPTSQVRRGDFTEDTTPNRPVYTTSQVGGLITHVLWEIVEMRKELCNGNSDCMNNDDALAENNLKLPEIQRNDGCYQTGYNQEICLLKISSGLLEYHSYLEYMKNNLKDNKKDKARVLQRDTETLIHIFNQEVKDLHKIVLPTPISNALLTDKLESQKEWLRTKTIQFILKSLEEFLKVTLRSTRQT	induced in a time-dependent manner	neither of them significantly induced CREBH cleavage	approximately 50 % of those observed after injection of Tm	also increased
IL1β: pro-inflammatory cytokine; recombinant murine IL1β in vivo (protein, UniProt P10749 118-269, looked up) Interleukin-1 beta: VPIRQLHYRLRDEQQKSLVLSDPYELKALHLNGQNINQQVIFSMSFVQGEPSNDKIPVALGLKGKNLYLSCVMKDGTPTLQLESVDPKQYPKKKMEKRFVFNKIEVKSKVEFESAEFPNWYISTSQAEHKPVFLGNNSGQDIIDFTMESVSS	induced in a time-dependent manner	–	approximately 50 % of those observed after injection of Tm	also increased
